Read-outs that look alike come from different tables or passages of the source. Blank lines part the entries; values can stand above or below the compound they belong to.
Key:
[1] = test system: APP processing (α-secretase pathway, CTFs) in swAPP-HEK293 cells; experiment: Western blot of APP, sAPPα, C83 and C99 in swAPP-HEK293 cells
Method: swAPP-HEK293 cells were scraped and lysed in CelLytic-M (Sigma). Protein concentrations were determined by the Bradford procedure. Equal quantity of proteins were separated on a 10% SDS-PAGE gel and transferred to Hybond-C (Amersham Biosciences) membranes. After transfer, membranes were blocked with 5% nonfat milk and incubated overnight with the primary antibody anti-APP antibody at 1/1000 (Serotec), allowing the detection of both APP and C83-C99 CTFs under specific separation and exposure conditions. For sAPPα detection, cells were allowed to secrete for 7 h. Media were collected, centrifuged and then equal amount of secretate were loaded on 10% SDS-PAGE and Western blotted with 6E10 monoclonal antibody (1/1000).

[2] = test system: intracellular Aβ 40 and Aβ 42 in swAPP-HEK293 cells; experiment: Intracellular (cell-associated) Aβ 40 and Aβ 42 ELISA, swAPP-HEK293 cells; type: cell-based, human; settings: qualitative; for Aβ 40 and Aβ 42 intracellular levels: swAPP-HEK293 cell lysates, normalized to cellular protein
[3] = test system: Notch-1 (NotchΔE) cleavage; experiment: NotchΔE transfection and Notch-1 cleavage assay in Hela cells; settings: Hela cells overexpressing NotchΔE, up to 16 hours; DAPT 2 μM
[4] = test system: Aβ 40 and Aβ 42 production in swAPP-HEK293 cells; experiment: Secreted Aβ 40 and Aβ 42 ELISA, swAPP-HEK293 cells; type: cell-based, human; settings: for secreted Aβ 40 and Aβ 42: swAPP-HEK293, 18 h, 20, 10 or 2 μM
Source text: Human APP harbouring the “Swedish” mutation (swAPP) is more prone to processing than wtAPP.

RhoA = RhoA (Homo sapiens, UniProt P61586); settings: Gao et al. 2004, Picard et al., submitted, cited from earlier work
[5] = Acute toxicity and tolerability in rat; settings: in vivo
Recombinant Rac3 = Recombinant Rac3 (Homo sapiens, UniProt P60763); experiment: biochemical
Cdc42 = Cdc42 (Homo sapiens, UniProt P60953); settings: Gao et al. 2004; Picard et al., submitted; cited from earlier work
Recombinant Rac2 = Recombinant Rac2 (Homo sapiens, UniProt P15153); experiment: biochemical
[6] = rat, in vivo
[7] = test system: Rac1-dependent cytoskeleton rearrangements; settings: Picard et al., submitted; cited from earlier work
[8] = test system: Aβ 40 production in SH-SY5Y cells; settings: for reduction in secreted Aβ 40 levels: 18 h
Method: Cells were treated 48 hours after plating in 10 cm plates with various concentrations of the indicated molecules, or DMSO as the vehicle for 16 hours. To do so, medium was replaced with 5 ml of new medium in which treatments were performed. Total DMSO dilution was 1/1000 in all cases. Cells were allowed to secrete in 5 ml medium for 7 hours in the presence of 1 μM phosphoramidon.
Stably transfected swAPP-HEK293 cells were incubated for 7 hours in the presence of phosphoramidon (1 μM) (Sigma). Media and cell lysates were collected as above, centrifuged, normalized to total protein and assayed for Aβ 40 and Aβ 42 by sandwich ELISA according to the manufacturer's instructions (Biosource International). For Aβ 42 detection, samples were concentrated on YM3 Microcon columns (Millipore). […] Right cortices were homogenized for 3 h at room temperature in 5M Guanidine-Hcl, 50 mM Tris-Hcl, pH8 with a protease inhibitor mixture (Roche Diagnostics). Tissue homogenates were diluted 1:1 (v/v) in BSAT-DPBS buffer (Dulbecco's phosphate buffered saline with 5% BSA and 0.03% Tween-20), pH 7.4, and were centrifuged at 20,000 g for 20 min at 4° C. Supernatants were diluted 1:1 (v/v) in ELISA kit sample buffer, normalized to total protein and assayed for Aβ 40 and Aβ 42 by sandwich ELISA according to the manufacturer's instructions. For Aβ 42 detection, samples were concentrated on YM3 Microcon columns (Millipore).

γ-secretase [9] = experiment: γ-Secretase assay, compound added to solubilized γ-secretase preparations; type: biochemical
Method: We implemented a an assay allowing de novo Aβ generation in vitro, using cell membranes as the source of γ-secretase. Preparation of solubilized γ-secretase fractions was performed essentially as described previously (Li, Y. M., Lai, M. T., Xu, M., Huang, Q., DiMuzio-Mower, J., Sardana, M. K., Shi, X. P., Yin, K. C., Shafer, J. A., and Gardell, S. J. (2000) Proc. Natl. Acad. Sci. U.S.A. 97, 6138-6143) with the above modifications. All incubations were performed in the presence of Complete Protease Inhibitor Cocktail. Confluent plates swAPP-HEK293 cells were lysed in 1 ml of ice-cold CelLytic-M (Sigma) and incubated 15 minutes at 4° C. on a shaker. Cell debris and nuclei were removed by centrifugation at 1000×g for 15 min at 4° C. For membrane isolation, the supernatant solutions were centrifuged at 20,000×g for 1 hour at 4° C. After centrifugation, the ensuing pellets were resuspended in 100 μl activity buffer (150 mM Na Citrate, pH 6.4)/cells plate and were defined as solubilized γ-secretase, as previously shown by Pinnix et al. (2001). Solubilized γ-secretase activity was induced at 37° C. for 2 h with or without the indicated treatments and Aβ 40 generated de novo was quantified by ELISA. Control experiments used the internally quenched fluorogenic γ-secretase substrate NMA-[…](DNP)-DRDRDR-NH2 (λex=355 nm; λem=440 nm) from Calbiochem, which contains the C-terminal β-APP amino acid sequence that is cleaved by γ-secretase and the γ-secretase inhibitor N—[N-(3,5-Difluorophenacetyl-L-alanyl)]-S-phenylglycine t-Butyl Ester (DAPT, Calbiochem).
To test this hypothesis, we used an established γ-secretase assay allowing de novo Aβ generation in vitro, using cell membranes as the source of γ-secretase. Solubilized γ-secretase fractions are activated in a γ-secretase buffer (see experimental procedures) and activity is monitored following either the cleavage of an internally quenched fluorogenic γ-secretase substrate, or endogenous C99 itself. The well characterized cell permeable γ-secretase inhibitor DAPT (Lanzn, T. A., Himesn, C. S., Pallanten, G., Adamsn, L., Yamazakin, S., Amoren, B., and Merchantn, K. M. (2003) J. Pharmacol. Exp. Ther. 305, 864-871) is included as control. C99 cleavage by γ-secretase was measured by de novo Aβ 40 generation. De novo Aβ 40 production increased with time and was optimal at 37° C. (FIG. 4 B). […] When temperature decreased, Aβ 40 generation decreased in parallel and was abolished at 4° C., in accordance with an enzymatic processing. […] (data not shown).

[10] = rat, in vivo; remark: listed apart in the source
γ-secretase [11] = experiment: γ-Secretase assay, de novo Aβ generation from membranes of compound-treated cells; type: cell-based; settings: cells incubated with compound for 16 hours
Method: We implemented a an assay allowing de novo Aβ generation in vitro, using cell membranes as the source of γ-secretase. Preparation of solubilized γ-secretase fractions was performed essentially as described previously (Li, Y. M., Lai, M. T., Xu, M., Huang, Q., DiMuzio-Mower, J., Sardana, M. K., Shi, X. P., Yin, K. C., Shafer, J. A., and Gardell, S. J. (2000) Proc. Natl. Acad. Sci. U.S.A. 97, 6138-6143) with the above modifications. All incubations were performed in the presence of Complete Protease Inhibitor Cocktail. Confluent plates swAPP-HEK293 cells were lysed in 1 ml of ice-cold CelLytic-M (Sigma) and incubated 15 minutes at 4° C. on a shaker. Cell debris and nuclei were removed by centrifugation at 1000×g for 15 min at 4° C. […] Solubilized γ-secretase activity was induced at 37° C. for 2 h with or without the indicated treatments and Aβ 40 generated de novo was quantified by ELISA. […]
To test this hypothesis, we used an established γ-secretase assay allowing de novo Aβ generation in vitro, using cell membranes as the source of γ-secretase. Solubilized γ-secretase fractions are activated in a γ-secretase buffer (see experimental procedures) and activity is monitored following either the cleavage of an internally quenched fluorogenic γ-secretase substrate, or endogenous C99 itself. […] C99 cleavage by γ-secretase was measured by de novo Aβ 40 generation. […]

BACE1 = molecular target: T1, BACE1 (Homo sapiens, UniProt P56817); experiment: Cellular BACE activity, HEK293 cells stably expressing BACE1; type: cell-based; settings: cells incubated 24 hours with compound 38 at 2, 10 or 20 μM
T1 construct: expressed in transfected cells; host or cells: HEK293
Source text: (§1) The human BACE1 cDNA was generated by RT-PCR from human brain mRNA samples (Biocat, Germany) and cloned into pcDNA3 expression vector. Subsequently, a HEK293 cell line stably expressing BACE1 was generated and used as a source of BACE1. An in vitro assay was developed based on previous studies (Ermolieff, J., Loy, J. A., Koelsch, G., and Tang, J. (2000) Biochemistry 39, 12450-12456) using a quenched fluorogenic substrate containing the Swedish mutation MCA-[…](DNP)-CONH2 (Substrate V, Calbiochem). Proteins were extracted in 20 mM MES/1% Triton X100 plus protease inhibitor cocktail by incubation on ice for 30 minutes. The assay was carried out in black 96 well plates (ATGC) in a volume of 200 μl reaction buffer (25 mM MES/25 mM Sodium Acetate/25 mM Tris, pH 4.4), containing 25 μl of the preparation plus 15 μM peptide Substrate V. Excitation was performed at 320 nm and the reaction kinetics were monitored by measuring the fluorescence emission at 420 nm on a Fluoroscan Ascent FL plate reader (Thermo LabSystems). Controls included purified recombinant human BACE501 protein (R&D Systems) diluted at 1 μg/well in 200 μl of 0.1 M Na Acetate buffer (pH 4.4), the BACE substrate analog inhibitor III (H-Glu-Val-Asn-Statine-Val-Ala-Glu-Phe-NH2, Calbiochem), or substrate alone, and background fluorescence was subtracted to recorded BACE activitiy. […]

[12] = molecular target: T2, recombinant human BACE protein (Homo sapiens, UniProt P56817); experiment: BACE fluorogenic assay with recombinant protein; type: biochemical; settings: recombinant human BACE 1 μg/well, pH4.4; compound 38 at 2, 10 or 20 μM and higher
T2 construct: purchased R&D Systems
Source text: as §1

[13] = test system: constitutively active mutant Rac1-Val12 (RACV12); experiment: Transient expression luciferase reporter assays in NIH3T3 cells cotransfected with RacV12; settings: c-Jun, NF-KB and cyclin D1 reporter constructs; qualitative
Method: Briefly, 250,000 NIH3T3 cells/well were seeded in 6-well plates and were co-transfected 24 h later with plasmids prK5-RacV12 and reporter constructs using LipofectAMINE Plus (Invitrogen). Compound of interest was added after the incubation with LipofectAmine. 24 h after transfection, cells were starved for an additional 24 h with Dulbecco's modified Eagle medium supplemented with 0.5% FBS together with the appropriate doses of test compounds or the solvent only. Analyses of the cell lysates of the transiently transfected NIH3T3 cells were performed using the Luciferase Assay System (Promega) and Fluoroscan Ascent FL plate reader (Thermo LabSystems). […] However, consistent and reproducible data were obtained in different assays performed using several plasmid preparations, and we monitored protein concentration for yield in the cell extracts as well as expression of the tagged, exogenous protein by Western blotting.

Rac1 = Rac1 (Homo sapiens, UniProt P63000); experiment: Endogenous Rac GTPase activation assay (GST-Pak-PBD pull-down of GTP-Rac1) in U87-MG cells; settings: qualitative
Method: U87-MG cells were grown in a 150-mm-diameter dish until they reached 80% confluency. The cells were then treated with the test compounds or the solvent only. Cells were then lyzed in a buffer containing 0.5% triton, 10 mM Tris pH7.5, mM KCl, 120 mM NaCl and 1.8 mM CaCl2. Lysates were clarified, the protein concentrations were normalized, and the GTP-bound Rac1 in the lysates were measured using the Rac Activation Assay Biochem kit (Cytoskeleton) as per manufacturer's recommendations.
We used a GST-fusion protein containing the p21-binding domain (PBD) of human p21-activated kinase 1 (Pak1) to affinity precipitate endogenous active Rac1 (GTP-Rac1) from cell lysates to monitor the activation of the small GTPase Rac1.

[14] = Homo sapiens, read-out: IC50, secreted Aβ 40

RhoA, sequence (P61586 whole entry, species assumed): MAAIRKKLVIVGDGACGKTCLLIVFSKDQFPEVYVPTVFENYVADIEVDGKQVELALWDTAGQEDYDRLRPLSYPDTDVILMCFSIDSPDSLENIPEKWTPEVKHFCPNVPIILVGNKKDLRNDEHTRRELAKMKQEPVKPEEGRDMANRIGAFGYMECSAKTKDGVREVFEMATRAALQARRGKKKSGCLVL
T1 sequence (P56817 46-501): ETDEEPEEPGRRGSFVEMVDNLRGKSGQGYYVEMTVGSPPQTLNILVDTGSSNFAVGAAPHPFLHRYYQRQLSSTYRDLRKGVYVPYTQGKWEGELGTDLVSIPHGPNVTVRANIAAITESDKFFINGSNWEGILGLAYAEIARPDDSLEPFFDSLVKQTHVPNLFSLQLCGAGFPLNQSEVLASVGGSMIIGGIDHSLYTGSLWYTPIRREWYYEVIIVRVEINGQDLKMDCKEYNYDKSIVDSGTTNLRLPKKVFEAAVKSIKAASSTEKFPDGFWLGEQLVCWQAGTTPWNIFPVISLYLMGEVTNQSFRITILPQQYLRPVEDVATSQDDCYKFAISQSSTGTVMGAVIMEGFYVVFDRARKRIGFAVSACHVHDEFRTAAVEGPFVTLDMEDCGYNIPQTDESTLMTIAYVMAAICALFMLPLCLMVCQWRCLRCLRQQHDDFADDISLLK
T2 sequence (P56817 46-501): as above
Cdc42, sequence (P60953 whole entry, species assumed): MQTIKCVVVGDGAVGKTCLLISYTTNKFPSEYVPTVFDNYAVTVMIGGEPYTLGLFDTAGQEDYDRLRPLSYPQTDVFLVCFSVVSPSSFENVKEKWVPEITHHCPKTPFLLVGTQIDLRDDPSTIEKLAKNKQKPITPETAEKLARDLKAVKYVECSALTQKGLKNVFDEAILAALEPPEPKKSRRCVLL

Compound: CCN(CC)CCCC(C)Nc1nc(C)cc(Nc2ccc3nc(C)cc(N)c3c2)n1 (racemic) [compound 49]
- APP expression and maturation, α-secretase pathway (APP, C83, sAPPα) ([1]; swAPP-HEK293, 16 hours): no alterations
- intracellular Aβ 40 ([2]; swAPP-HEK293): no intracellular accumulation of Aβ 40
- intracellular levels of Aβ 42 ([2]; swAPP-HEK293): dose-dependently decreased
- Notch cleavage (NICD by Western blot) [3]: no alterations
- IC50 [4, 14]: 48.9 µM
- inhibition at 50 µM ([4]; Homo sapiens, read-out: inhibition of released Aβ 42): 58%
- secreted Aβ 40 levels ([4]; swAPP-HEK293, various concentrations, qualitative): dose-dependently reduced secreted Aβ 40 levels
- extracellular levels of Aβ 42 ([4]; swAPP-HEK293, qualitative): dose-dependently decreased
- activity on / interaction with RhoA (RhoA): does not interact with cdc42 and RhoA
- activity on / interaction with RhoA (RhoA; listed as NSC23766): not to affect the activity of Cdc42 or RhoA

Compound: Cl.Cl.O=c1cc(CN2CCOCC2)occ1OCCCCCSc1ccnc2cc(C(F)(F)F)ccc12 [compound 38, 5-(5-(7-(Trifluoromethyl)quinolin-4-ylthio)pentyloxy)-2-(morpholinomethyl)-4H-pyran-4-one dihydrochloride]
- C99 level ([1]; swAPP-HEK293): dose-dependent increase in C99
- level of full-length cytosolic and membranous APP ([1]; swAPP-HEK293): unchanged
- C83 levels ([1]; swAPP-HEK293, 20, 10 or 2 μM): neither affected sAPPα nor C83 levels
- sAPPα levels secreted in culture medium ([1]; swAPP-HEK293, 20, 10 or 2 μM): neither affected sAPPα nor C83 levels
- Aβ 40 and Aβ 42 intracellular levels [2]: dose-dependent decrease
- Notch cleavage (NICD by Western blot) [3]: did not affect Notch cleavage
- LD50 ([5]; iv): 50 mg/kg
- LD50 ([5]; po): > 1000 mg/kg
- Kd (Recombinant Rac3): 270 nM
- activity on / interaction with Cdc42 (Cdc42): selective over cdc42 and RhoA
- Kd (Recombinant Rac2): 60 nM
- genotoxicity (Ames test) (Ames test): no genotoxicity
- brain concentrations ([6]; iv, 5 mg/kg): 130 ng/g
- brain concentrations ([6]; po, 100 mg/kg): 54 ng/g
- Rac1-dependent cytoskeleton rearrangements [7]: prevents
- decrease in Aβ 42 levels (brain Aβ 40 and Aβ 42; guinea pig, 40 mg/kg per day i.p., 15 days, just below significance): 23.6%
- lowering of brain Aβ 40 (brain Aβ 40 and Aβ 42; guinea pig, 40 mg/kg per day i.p., 15 days, p<0.05 Wilcoxon): 37%
- reduction in Aβ levels in vivo (brain Aβ 40 and Aβ 42; summary statement): ~30%
- C83 and C99 levels (brain Aβ 40 and Aβ 42; treated guinea pigs): No significant changes
- full-length APP levels (brain Aβ 40 and Aβ 42; treated guinea pigs): no change
- reduction in secreted Aβ 40 levels ([8]; 2 μM): 12.9%
- reduction in secreted Aβ 40 levels ([8]; 10 μM): 30.1%
- reduction in secreted Aβ 40 levels ([8]; 20 μM): 79.8%
- IC50 [8, 14]: 5.44 µM
- de novo Aβ 40 generation from membrane preparations (γ-secretase [9]; added to solubilized γ-secretase from untreated cells, 50 μM): did not change
- de novo Aβ 40 generation from membrane preparations (γ-secretase [9]; concentrations as high as 4 mM): lack of effect
- cleavage of fluorogenic γ-secretase substrate (γ-secretase [9]; direct addition): not a direct competitive inhibitor of γ-secretase
- tolerability [10]: good tolerability
- Aβ 40 and Aβ 42 levels ([4]; swAPP-HEK293, 50 μM or above): below the detection limit
- secreted Aβ 40 and Aβ 42 ([4]; qualitative): dose-dependently inhibits both Aβ species
- de novo Aβ production from C99 (γ-secretase activity) (γ-secretase [11]): dose-dependent reduction
- cellular BACE activity (fluorescence) (BACE1): did not affect fluorescence
- activity on / interaction with RhoA (RhoA): selective over cdc42 and RhoA
- BACE activity (cleavage of fluorogenic Substrate V) [12]: did not affect fluorescence

Compound: CN1CCN(Cc2cc(=O)c(OCCCCCOc3ncnc4ccccc34)co2)CC1 (racemic) [compound 53, 5-(5-(Quinazolin-4-yloxy)pentyloxy)-2-((4-methylpiperazin-1-yl)methyl)-4H-pyran-4-one]
- Aβ 40 and Aβ 42 intracellular levels [2]: strictly inactive
- luciferase activity from all 3 reporter constructs [13]: did not change luciferase activity
- Rac1 activation (Rac1): totally unable to inhibit Rac1 activation
- reducing Aβ levels ([8]; qualitative): strictly inactive
- secreted Aβ 40 and Aβ 42 ([4]; qualitative): strictly inactive
- de novo Aβ production from C99 (γ-secretase activity) (γ-secretase [11]): did not affect γ-secretase activity

- cellular BACE activity (fluorescence) (BACE1): inhibited
- BACE activity (cleavage of fluorogenic Substrate V) [12]: abolished the cleavage
Compound: H-Glu-Val-Asn-Statine-Val-Ala-Glu-Phe-NH2 [BACE Inhibitor III, reference compound]

Compound: C[C@H](NC(=O)Cc1cc(F)cc(F)c1)C(=O)N[C@H](C(=O)OC(C)(C)C)c1ccccc1 [DAPT, N—[N-(3,5-Difluorophenacetyl-L-alanyl)]-S-phenylglycine t-Butyl Ester, reference compound]
- Notch cleavage (NICD by Western blot) [3]: potently inhibited
- Aβ production (de novo Aβ 40 generation) (γ-secretase [9]; control inhibitors, DAPT at 2 μM): completely inhibited

Reference: US20090093471A1, “Methods of Treating Nervous Disorders” (priority 2005, published 2009)
